Measured values from patent US11225474B2, “Crystalline salt forms of 3-(1,2,4-triazolo[4,3-a]pyridine-3-ylethynyl)-4-methyl-N-(4-((4-methylpiperazin-1-yl)methyl)-3-trifluoromethylphenyl)benzamide for medical application” (priority 2016, dated 2022).
Where two headings read alike, the source gives them in different places.

How the values were obtained:
[1] = Stability, 7 days at T = 60° C.; assay type: physicochemical
[2] = in vivo; design: species or system C57BL/6 line mice; settings: mouse, plasma; mesylate polymorphous modification I 59 mg/kg (50 mg/kg as free base), single oral, C57BL/6 mice; read-out: Cmax
Protocol: FIGS. 52A-52B. […] The mean values were determined for each time point on the basis of the individual data obtained from three animals.
The results of the study are given in FIG. 52 and in Tables 14 and 15.

[3] = tested on: Sca1+ marrow cells, expressing p185-T315I^BCR/ABL; assay: BCR/ABL-induced chronic myelogenous leukemia model; assay type: in vivo, C57BL/6N line mice; settings: for Average life: oral, control 55.0 ± 6.3
Protocol: To assess the efficacy of the free base and methanesulfonic acid salt of 3-(1,2,4-triazolo[4,3-a]pyridine-3-ylethynyl)-4-methyl-N-(4-((4-methylpiperazine-1-yl)methyl)-3-trifluoromethylphenyl)benzamide for treating chronic myelogenous leukemia (CML) studies of the compounds' activity on the BCR/ABL-induced CML-like disease in mice were conducted. In the study C57BL/6N line mice were used. […] The efficacy of therapy with 3-(1,2,4-triazolo[4,3-a]pyridine-3-ylethynyl)-4-methyl-N-(4-((4-methylpiperazine-1-yl)methyl)-3-trifluoromethylphenyl)benzamide administered orally as a free base and methanesulfonic acid salt was studied.

[4] = target: BLK (Homo sapiens, UniProt P51451); assay: Human kinase panel at 100 nM; assay type: biochemical
[5] = target: EPHA8 (Homo sapiens, UniProt P29322); assay: Human kinase panel at 100 nM; assay type: biochemical
[6] = target: FGR (Homo sapiens, UniProt P09769); assay: Human kinase panel at 100 nM; assay type: biochemical
[7] = target: FLT4/VEGFR3 (Homo sapiens, UniProt P35916); assay: Human kinase panel at 100 nM; assay type: biochemical
[8] = target: FYN (Homo sapiens, UniProt P06241); assay: Human kinase panel at 100 nM; assay type: biochemical
[9] = target: P38a/MAPK14 (Homo sapiens, UniProt Q16539); assay: Human kinase panel at 100 nM; assay type: biochemical
[10] = target: RAF1 (Homo sapiens, UniProt P04049); assay: Human kinase panel at 100 nM; assay type: biochemical
[11] = target: RIPK3 (Homo sapiens, UniProt Q9Y572); assay: Human kinase panel at 100 nM; assay type: biochemical
[12] = target: ZAK/MLTK (Homo sapiens, UniProt Q9NYL2); assay: Human kinase panel at 100 nM; assay type: biochemical
[13] = tested on: Tom-1; assay: Cytotoxicity, Ph+ ALL model cell line; assay type: cell-based; settings: Homo sapiens, read-out: IC50 (toxicity)
[14] = tested on: SupB15; assay: Cytotoxicity, Ph+ ALL model cell line; assay type: cell-based; settings: Homo sapiens, SUP-B15, read-out: IC50 (toxicity)
[15] = tested on: CCRF-CEM; assay: Cytotoxicity, acute lymphoblastic leukemia line; assay type: cell-based, human
[16] = tested on: MDA-MB-468; assay: Cytotoxicity, breast cancer line; assay type: cell-based, human
[17] = tested on: SKOV-3; assay: Cytotoxicity, ovarian cancer line; assay type: cell-based, human
[18] = tested on: SR; assay: Cytotoxicity, lymphoma line; assay type: cell-based, human
[19] = Drug distribution in rat tissues; assay type: in vivo
[20] = target: CYP2C8 (Homo sapiens, UniProt P10632); assay: Metabolism study using cytochrome enzyme drugs; assay type: in vitro ADME; settings: 2C8
[21] = target: CYP2C9 (Homo sapiens, UniProt P11712); assay: Metabolism study using cytochrome enzyme drugs; assay type: in vitro ADME; settings: 2C9
[22] = target: CYP2C19 (Homo sapiens, UniProt P33261); assay: Metabolism study using cytochrome enzyme drugs; assay type: in vitro ADME; settings: 2C19
[23] = tested on: mice; assay: Acute toxicity studies, mice; assay type: in vivo
[24] = MTD at a single administration to dogs; settings: dog, in vivo
Protocol: The MTD of the drug at a single administration to dogs was 45 mg/kg (38 mg/kg calculated as a free base).

[25] = Daily intragastric administration during 28 days, rats; settings: rat, in vivo, po; for MTD at 28 days: daily intragastric
[26] = tested on: murine marrow cells; assay: Gene toxicity: metaphase chromosome aberration assay; assay type: in vivo; settings: all doses tested
[27] = tested on: A549; settings: oral, 25 mg/kg (21 mg/kg as free base), 20 days
Protocol: Thymus-deprived male mice were used in the studies. A549 (1×10^7 cells) were injected with 0.2 mL of matrigel solution (BD Pharmingen) into the left leg of a mouse under ketamine/xylazine anesthesia. In a week after the injections, mice were distributed between therapeutic and control groups that were randomized by tumor size. Oral administration of the methanesulfonic acid salt of 3-(1,2,4-triazolo[4,3-a]pyridine-3-ylethynyl)-4-methyl-N-(4-((4-methylpiperazine-1-yl)methyl)-3-trifluoromethylphenyl)benzamide at a dose of 25 mg/kg (equivalent to 21 mg/kg calculated as the free base) was started on the next day after randomization and continued for 20 days. To determine the efficacy of tumor growth inhibition, the average size ratio was calculated for the therapeutic/control groups (% T/C).

[28] = target: Bcr-Abl (Homo sapiens, UniProt P00519); assay: Bcr-Abl tyrosine kinase enzyme activity
[29] = target: Bcr-Abl (G250E) (Homo sapiens, UniProt P00519, G250E, form not given); assay: Bcr-Abl tyrosine kinase enzyme activity
[30] = target: Bcr-Abl (M351T) (Homo sapiens, UniProt P00519, M351T, form not given); assay: Bcr-Abl tyrosine kinase enzyme activity
[31] = target: Bcr-Abl (Y253F) (Homo sapiens, UniProt P00519, Y253F, form not given); assay: Bcr-Abl tyrosine kinase enzyme activity

Sequence of CYP2C9 (P11712 whole entry): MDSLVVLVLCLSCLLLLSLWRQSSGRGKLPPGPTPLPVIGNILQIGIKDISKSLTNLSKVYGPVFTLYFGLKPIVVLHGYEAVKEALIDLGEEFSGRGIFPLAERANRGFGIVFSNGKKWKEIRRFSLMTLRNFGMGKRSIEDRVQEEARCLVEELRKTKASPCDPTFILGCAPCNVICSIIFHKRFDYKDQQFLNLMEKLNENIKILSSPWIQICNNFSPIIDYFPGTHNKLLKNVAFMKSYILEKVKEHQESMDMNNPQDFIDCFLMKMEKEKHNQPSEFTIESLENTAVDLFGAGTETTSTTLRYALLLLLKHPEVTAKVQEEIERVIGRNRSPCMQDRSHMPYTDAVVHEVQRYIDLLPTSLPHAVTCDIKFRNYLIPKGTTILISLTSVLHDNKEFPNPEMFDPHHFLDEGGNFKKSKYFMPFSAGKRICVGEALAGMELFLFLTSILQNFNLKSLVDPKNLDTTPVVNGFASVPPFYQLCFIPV
Sequence of BLK (P51451 whole entry): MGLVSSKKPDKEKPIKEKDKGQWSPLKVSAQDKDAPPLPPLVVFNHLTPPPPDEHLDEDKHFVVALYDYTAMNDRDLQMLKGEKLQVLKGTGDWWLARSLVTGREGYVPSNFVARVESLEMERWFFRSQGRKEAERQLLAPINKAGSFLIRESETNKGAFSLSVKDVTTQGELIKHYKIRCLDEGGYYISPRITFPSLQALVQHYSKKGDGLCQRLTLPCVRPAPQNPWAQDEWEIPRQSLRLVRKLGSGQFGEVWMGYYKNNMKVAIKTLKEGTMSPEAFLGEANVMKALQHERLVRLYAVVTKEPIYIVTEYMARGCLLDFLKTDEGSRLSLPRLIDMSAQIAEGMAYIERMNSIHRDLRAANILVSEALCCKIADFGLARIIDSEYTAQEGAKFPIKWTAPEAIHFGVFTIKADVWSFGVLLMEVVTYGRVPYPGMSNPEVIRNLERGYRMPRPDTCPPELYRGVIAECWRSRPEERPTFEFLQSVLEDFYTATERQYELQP
Sequence of FLT4/VEGFR3 (P35916 25-1363): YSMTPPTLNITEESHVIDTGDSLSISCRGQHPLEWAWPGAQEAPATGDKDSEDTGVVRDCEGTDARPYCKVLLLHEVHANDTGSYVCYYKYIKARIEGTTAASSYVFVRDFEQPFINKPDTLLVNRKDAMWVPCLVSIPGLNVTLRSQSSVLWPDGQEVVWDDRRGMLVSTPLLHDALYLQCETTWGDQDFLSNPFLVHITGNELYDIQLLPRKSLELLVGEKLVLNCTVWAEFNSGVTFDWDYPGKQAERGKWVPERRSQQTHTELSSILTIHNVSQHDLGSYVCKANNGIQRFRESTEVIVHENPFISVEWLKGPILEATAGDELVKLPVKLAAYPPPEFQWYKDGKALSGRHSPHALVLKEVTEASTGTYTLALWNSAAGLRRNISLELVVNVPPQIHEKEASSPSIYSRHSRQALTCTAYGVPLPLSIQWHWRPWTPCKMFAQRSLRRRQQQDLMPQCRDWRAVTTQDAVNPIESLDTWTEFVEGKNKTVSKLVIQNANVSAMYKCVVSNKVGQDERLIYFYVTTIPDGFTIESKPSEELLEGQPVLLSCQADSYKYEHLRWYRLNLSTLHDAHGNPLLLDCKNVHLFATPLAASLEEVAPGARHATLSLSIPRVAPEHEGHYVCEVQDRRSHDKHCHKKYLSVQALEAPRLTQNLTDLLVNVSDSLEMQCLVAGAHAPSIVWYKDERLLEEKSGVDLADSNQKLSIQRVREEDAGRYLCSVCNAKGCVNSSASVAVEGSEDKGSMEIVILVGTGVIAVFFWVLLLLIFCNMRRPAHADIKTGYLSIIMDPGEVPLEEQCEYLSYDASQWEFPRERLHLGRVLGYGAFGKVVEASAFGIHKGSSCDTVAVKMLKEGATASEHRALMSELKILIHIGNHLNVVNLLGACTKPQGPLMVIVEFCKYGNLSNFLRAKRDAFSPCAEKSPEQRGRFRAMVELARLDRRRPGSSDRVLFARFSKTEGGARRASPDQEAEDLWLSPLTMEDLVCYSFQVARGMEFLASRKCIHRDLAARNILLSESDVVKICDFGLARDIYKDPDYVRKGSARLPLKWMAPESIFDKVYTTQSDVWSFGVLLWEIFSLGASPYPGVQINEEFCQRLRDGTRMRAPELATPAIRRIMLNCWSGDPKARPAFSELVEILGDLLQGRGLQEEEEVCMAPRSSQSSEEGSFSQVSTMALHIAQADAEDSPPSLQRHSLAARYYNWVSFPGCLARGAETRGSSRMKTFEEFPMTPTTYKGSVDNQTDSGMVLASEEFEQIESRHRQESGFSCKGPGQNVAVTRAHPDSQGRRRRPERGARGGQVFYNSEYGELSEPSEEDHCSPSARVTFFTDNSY
Sequence of CYP2C8 (P10632 whole entry): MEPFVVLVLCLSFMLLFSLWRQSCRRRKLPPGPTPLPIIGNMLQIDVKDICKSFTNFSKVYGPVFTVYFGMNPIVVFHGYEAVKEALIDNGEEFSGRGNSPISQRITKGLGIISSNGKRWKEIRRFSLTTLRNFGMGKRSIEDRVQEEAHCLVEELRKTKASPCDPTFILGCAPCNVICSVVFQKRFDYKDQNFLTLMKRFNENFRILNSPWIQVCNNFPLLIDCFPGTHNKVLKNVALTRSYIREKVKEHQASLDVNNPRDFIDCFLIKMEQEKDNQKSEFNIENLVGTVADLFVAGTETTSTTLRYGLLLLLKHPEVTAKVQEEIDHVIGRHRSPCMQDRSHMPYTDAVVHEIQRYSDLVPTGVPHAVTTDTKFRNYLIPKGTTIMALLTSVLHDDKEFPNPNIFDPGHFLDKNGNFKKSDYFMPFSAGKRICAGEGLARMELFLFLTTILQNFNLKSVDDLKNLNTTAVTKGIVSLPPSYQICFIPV
Sequence of P38a/MAPK14 (Q16539 whole entry): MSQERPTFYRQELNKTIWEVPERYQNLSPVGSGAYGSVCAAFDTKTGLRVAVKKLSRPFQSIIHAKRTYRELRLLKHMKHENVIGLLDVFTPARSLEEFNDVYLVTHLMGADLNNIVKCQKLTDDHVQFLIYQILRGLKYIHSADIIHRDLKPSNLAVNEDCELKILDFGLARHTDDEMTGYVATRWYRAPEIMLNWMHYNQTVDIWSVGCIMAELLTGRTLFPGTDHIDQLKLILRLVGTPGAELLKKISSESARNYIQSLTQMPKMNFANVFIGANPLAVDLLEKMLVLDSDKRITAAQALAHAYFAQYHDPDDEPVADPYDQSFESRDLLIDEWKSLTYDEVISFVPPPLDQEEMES
Sequence of CYP2C19 (P33261 whole entry): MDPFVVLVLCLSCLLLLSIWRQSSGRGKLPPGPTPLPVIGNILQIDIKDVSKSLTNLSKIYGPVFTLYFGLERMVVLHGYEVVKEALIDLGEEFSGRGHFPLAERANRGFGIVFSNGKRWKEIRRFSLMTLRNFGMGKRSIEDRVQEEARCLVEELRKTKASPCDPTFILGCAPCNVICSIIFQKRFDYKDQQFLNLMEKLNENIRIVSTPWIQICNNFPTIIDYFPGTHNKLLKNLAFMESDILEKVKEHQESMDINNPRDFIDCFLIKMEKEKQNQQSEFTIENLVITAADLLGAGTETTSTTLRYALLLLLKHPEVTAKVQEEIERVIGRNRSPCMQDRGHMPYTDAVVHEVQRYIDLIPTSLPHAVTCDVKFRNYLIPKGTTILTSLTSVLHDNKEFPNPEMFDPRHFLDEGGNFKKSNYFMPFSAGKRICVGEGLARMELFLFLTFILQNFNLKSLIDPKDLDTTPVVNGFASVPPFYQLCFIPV
Sequence of RIPK3 (Q9Y572 whole entry): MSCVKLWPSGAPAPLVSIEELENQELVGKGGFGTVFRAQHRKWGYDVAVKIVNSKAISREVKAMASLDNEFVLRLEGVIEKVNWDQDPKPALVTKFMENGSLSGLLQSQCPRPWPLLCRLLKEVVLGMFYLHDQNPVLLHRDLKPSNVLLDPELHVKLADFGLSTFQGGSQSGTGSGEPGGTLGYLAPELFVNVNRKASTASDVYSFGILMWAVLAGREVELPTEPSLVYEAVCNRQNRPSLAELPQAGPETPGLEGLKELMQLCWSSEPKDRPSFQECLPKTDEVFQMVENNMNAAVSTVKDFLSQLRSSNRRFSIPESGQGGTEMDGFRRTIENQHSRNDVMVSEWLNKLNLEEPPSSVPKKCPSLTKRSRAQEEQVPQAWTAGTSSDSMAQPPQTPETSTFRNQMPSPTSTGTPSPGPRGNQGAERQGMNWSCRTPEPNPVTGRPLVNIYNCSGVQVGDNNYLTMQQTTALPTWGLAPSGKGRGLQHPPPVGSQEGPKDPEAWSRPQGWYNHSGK
Sequence of FYN (P06241 whole entry): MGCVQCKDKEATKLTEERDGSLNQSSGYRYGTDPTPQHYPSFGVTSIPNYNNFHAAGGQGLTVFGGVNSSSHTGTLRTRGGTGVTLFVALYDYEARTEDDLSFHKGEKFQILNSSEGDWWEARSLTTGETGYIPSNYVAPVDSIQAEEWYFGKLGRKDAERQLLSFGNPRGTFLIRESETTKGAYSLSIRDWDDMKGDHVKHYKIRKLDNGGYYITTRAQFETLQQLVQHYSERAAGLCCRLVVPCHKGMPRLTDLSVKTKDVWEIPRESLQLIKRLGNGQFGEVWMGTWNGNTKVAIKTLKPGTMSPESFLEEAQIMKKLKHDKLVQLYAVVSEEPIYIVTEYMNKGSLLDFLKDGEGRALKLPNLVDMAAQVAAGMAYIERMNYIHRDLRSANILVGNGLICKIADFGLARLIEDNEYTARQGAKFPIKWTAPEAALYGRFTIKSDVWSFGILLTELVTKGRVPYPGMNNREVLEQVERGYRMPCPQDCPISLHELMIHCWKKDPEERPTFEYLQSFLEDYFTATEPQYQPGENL

CS(=O)(=O)O.Cc1ccc(C(=O)Nc2ccc(CN3CCN(C)CC3)c(C(F)(F)F)c2)cc1C#Cc1nnc2ccccn12 [methanesulfonic acid salt, 3-(1,2,4-triazolo[4,3-a]pyridine-3-ylethynyl)-4-methyl-N-(4-((4-methylpiperazin-1-yl)methyl)-3-trifluoromethylphenyl)benzamide mono methanesulfonic acid salt]
Crystallinity in 7 days ([1]; 7 days at T = 60° C.): Cryst. | Relative peak area, in 7 days ([1]; 7 days at T = 60° C.): 99.7% | Relative peak area, initial ([1]; before storage): 99.7% | content of impurities ([1]; kept seven days at 60° C.): remained constant | Cmax [2]: 1100 ng/mL | therapeutic effect compared with the free base ([3]; 40 mg/kg (34 mg/kg as free base)): same therapeutic effect as administration of 50 mg/kg of a free base | increase of animals' lives compared to the control group ([3]; 59 mg/kg (50 mg/kg as free base)): almost two-fold increase | Average life ([3]; 10 mg/kg salt (8.5 as free base)): 65.5 ± 6.7 days | Average life ([3]; 25 mg/kg salt (21 as free base)): 73.9 ± 7.1 days | Average life ([3]; 40 mg/kg salt (34 as free base)): 90.3 ± 6.9 days | Average life ([3]; 59 mg/kg salt (50 as free base)): 104.5 ± 5.2 days | inhibition at 0.1 µM [4]: > 50% | inhibition at 0.1 µM [5]: > 50% | inhibition at 0.1 µM [6]: > 50% | inhibition at 0.1 µM [7]: > 50% | inhibition at 0.1 µM [8]: > 50% | inhibition at 0.1 µM [9]: > 50% | inhibition at 0.1 µM [10]: > 50% | inhibition at 0.1 µM [11]: > 50% | inhibition at 0.1 µM [12]: > 50% | IC50 [13]: 5 nM | IC50 [14]: 50 nM | cytotoxicity [15]: showed cytotoxicity | cytotoxicity [16]: showed cytotoxicity | cytotoxicity [17]: showed cytotoxicity | cytotoxicity [18]: showed cytotoxicity | Kp ([19]; bone marrow, read-out: concentration in bone marrow relative to plasma): 27 | Kp ([19]; brain, read-out: exposure in brain relative to blood plasma exposure): ~0.2 | Kp ([19]; kidneys, read-out: concentration in kidneys relative to plasma): 34 | Kp ([19]; liver, read-out: concentration in liver relative to plasma): 21 | Kp ([19]; lungs, read-out: concentration in lungs relative to blood plasma): ~71 | Kp ([19]; spleen, read-out: concentration in spleen relative to plasma): 45 | participation of the isoform in metabolism [20]: does not involve | participation of the isoform in metabolism [21]: does not involve | participation of the isoform in metabolism [22]: does not involve | LD10 ([23]; calculated as the free base): 678 mg/kg | LD10 ([23]; dose of the salt): 800 mg/kg | MTD ([24]; calculated as a free base): 38 mg/kg | MTD ([24]; dose of the salt): 45 mg/kg | Cmax ([25]; Day 28, dose of 50 mg/kg daily intragastric): 661 ± 289 ng/mL | AUC ([25]; Day 28, dose of 50 mg/kg daily intragastric, read-out: AUC24): 8600 ng·h/mL | MTD at 28 days ([25]; 2 separate studies, dose of the salt): 50 to 73 mg/kg | MTD at 28 days ([25]; calculated as a free base): 42 to 62 mg/kg | genotoxic effects [26]: had no genotoxic effects | Equilibrium solubility (deionized water, HPLC analysis, listed as HAL-G-196-20): >100 mg/mL | pH (equilibrium solubility test in water): 3.6 | Crystallinity in 24 h (solid in water, equilibrium solubility test): Dissolution | solubility relative to the free base (water): 10,000 fold | T/C (average tumor size ratio therapeutic/control) [27]: < 35% | IC50 [28]: 0.49 to 3.1 nM | IC50 [29]: 7.4 nM | IC50 [30]: 2.8 nM | IC50 [31]: 4.1 nM
